{
  "source": "patent US20160303137A1",
  "about": "“DUAL PI3K AND WNT PATHWAY INHIBITION AS A TREATMENT FOR CANCER” (Indiana University Research and Technology Corporation, priority 2015, published 2016)",
  "key": {"[1]": {"experiment": "Quantification of drug in resected tumors (PD study)", "assay_type": "in vivo, NSG mice", "settings": "tumors resected 1 hour and 7 hours after last dose, day 7; HPLC-MS/MS"}, "[2]": {"test_system": "phosphorylated-AKT (p-AKT Ser 473)", "experiment": "Western blot of phospho-AKT in TNBC cell lines", "assay_type": "cell-based", "settings": "MDA-MB-231, HCC70, HCC1143; 1 μM or 10 μM; 72 hours", "description": "(§1) For Western Blot analysis, target modulation was assessed using qPCR for Axin2 (a marker of WNT974), and western blot for Porcupine and Phospho-Akt […] (a marker of Buparlisib activity). qPCR was performed using Taqman assays (Life Technologies). For western blotting, protein was isolated using RIPA buffer and quantified with BCA assay (Thermo Fisher). Protein was run on Bis-Tris gels (Life Technologies) and transferred to PVDF. Primary pAKT-[…] antibody (Cell Signaling Technology, Beverly, Mass.), β-actin (Cell Signaling Technology), and PORCN (Abcam, Cambridge, England) were incubated overnight with subsequent 1 hour incubation with HRP-conjugate secondary antibody. Staining was performed using a chemiluminescent substrate (ThermoFisher). Imaging was performed using an LAS-4000 Luminescent Image Analyzer (Fujifilm, Tokyo, Japan). Three TNBC cell lines: MDA-MB-231, HCC70, and HCC1143 were treated with either 0, 1 μM or 10 μM Buparlisib. After 72 hours, protein was isolated and PORCN and pAKT expression was observed."}, "[3]": {"test_system": "Porcupine (PORCN)", "experiment": "Western blot of Porcupine in TNBC cell lines", "assay_type": "cell-based", "settings": "MDA-MB-231, HCC70, HCC1143; 1 μM or 10 μM; 72 hours", "description": "as §1"}, "[4]": {"test_system": "Wnt pathway genes incl. Porcupine (PORCN)", "experiment": "RNA-seq of MDA-MB-231 before and after Buparlisib treatment", "assay_type": "cell-based, human", "settings": "MDA-MB-231, RNA-seq after vs before treatment", "description": "RNA-sequencing for the Buparlisib treated MDA-MB-231 cell line experiment was performed as follows. To enrich for the non-ribosomal RNA transcriptome, RNA samples were first depleted of ribosomal RNA using the Low Input Ribominus Kit (Life Technologies). ERCC spike-in controls (Pool 1) were introduced for all samples (Life Technologies). RNA libraries were constructed using the Ion Total RNA-Seq Kit for AB Library Builder System (Life Technologies) per manufacturer's instructions. Libraries were barcoded using the IonXpress RNA-Seq Barcode 1-16 Kit (Life Technologies), and libraries were quantified using the Agilent TapeStation 2200 along with the DNA D1K Kit. Libraries were diluted to a concentration of 11 picomolar prior to templating and emulsion PCR using the Ion Template OT2 200 v2 kit along with Ion OneTouch 2 instrument (Life Technologies). Templates were quantified using the IonSphere Quality Control Kit (Life Technologies). Samples were sequenced on an Ion Proton Next-Generation Sequencer using the Ion Proton PI chip and the Ion PI Sequencing 200 v2 kit (Life Technologies). Samples were sequenced using 2 RNA-seq libraries/samples per chip to an average of 30-40 million reads per sample. Reads were mapped to the human genome (hg19) using the STAR algorithm (Dobin et al. Bioinformatics 29, 15-21 (2013)). Aligned BAM files were then imported into Partek Genomics Suite. […]"}, "[5]": {"test_system": "AXIN2 RNA", "experiment": "Axin2 RNA qPCR on TMD-231 tumors (PD study)", "assay_type": "in vivo, NSG mice", "settings": "7 days once-a-day; Buparlisib 30 mg/kg, WNT974 3 mg/kg", "description": "as §1, with “Japan).” for “Japan). Three TNBC cell lines: MDA-MB-231, HCC70, and HCC1143 were treated with either 0, 1 μM or 10 μM Buparlisib. After 72 hours, protein was isolated and PORCN and pAKT expression was observed.”"}},
  "data": [
    {"smiles": "Nc1cc(C(F)(F)F)c(-c2cc(N3CCOCC3)nc(N3CCOCC3)n2)cn1", "note": "[Buparlisib, 5-(2,6-di-4-morpholinyl-4-pyrimidinyl)-4-(trifluoromethyl)-2-pyridinamine]", "values": [
      {"measurement": "drug concentrations in tumor tissue", "setting": "[1]", "result": "reaching the tumor"},
      {"measurement": "phospho-AKT", "setting": "[2]", "result": "potent inhibition"},
      {"measurement": "Porcupine protein expression", "setting": "[3]", "result": "increase"},
      {"measurement": "expression of Wnt pathway genes", "setting": "[4]", "result": "significant increase"},
      {"measurement": "Porcupine (PORCN) gene over-expression after treatment", "setting": "[4]; preliminary data", "result": "approximately 8 fold"},
      {"measurement": "Axin2 RNA expression in tumors", "setting": "[5]", "result": "no significant change"}
    ]}
  ]
}
